Experimental data from patent US20200399222A1, “PICOLINAMIDES AS FUNGICIDES” (Dow AgroSciences LLC, priority 2018, published 2020).
Read-outs that look alike come from different tables or passages of the source.

System: Phakopsora pachyrhizi
Assay: Asian soybean rust (PHAKPA) disease control on soybean seedlings
Format: in vivo
Details: High volume application at 25 ppm; for pest or weed control at 25 ppm: Phakopsora pachyrhizi
Experimental: Example C: Evaluation of Fungicidal Activity: Asian Soybean Rust (Phakopsora pachyrhizi; Bayer Code […]) Technical grades of materials were dissolved in acetone, which were then mixed with nine volumes of water containing 0.011% Tween 20. The fungicide solutions were applied onto soybean seedlings using an automated booth sprayer to run-off. All sprayed plants were allowed to air dry prior to further handling. Soybean plants (variety Williams 82) were grown in soil-less Metro mix, with one plant per pot. Two week old seedlings were used for testing. Plants were inoculated either 3 days prior to or 1 day after fungicide treatments. Plants were incubated for 24 h in a dark dew room at 22° C. and 100% relative humidity then transferred to a growth room at 23° C. for disease to develop. Disease severity was assessed on the sprayed leaves.

[1] = 24 h, 1 day protectant, read-out: PHAKPA 1DP (1 Day Protectant) disease control
[2] = 72 h, 3 day curative, read-out: PHAKPA 3DC (3 Day Curative) disease control

In the case of `COc1ccnc(C(=O)NCC(=O)O[C@@H](C)[C@@H](C)c2ccc(F)cc2C)c1OC(=O)C(C)C` [Example 196], the “PHAKPA 1DP (1 Day Protectant) disease control” value (from here on “PHAKPA 1DP”) (1 day protectant) is reported as “A (>80)” and the “PHAKPA 3DC (3 Day Curative) disease control” value (“PHAKPA 3DC” for short) (3 day curative) is reported as “B (≤80)”.

`COc1ccc([C@@H](C)[C@@H](C)OC(=O)[C@H](C)NC(=O)c2nccc(OC)c2OC(=O)C(C)C)c(C)c1` [Example 227] was tested, and the pest or weed control at 25 ppm [1] was < 80% and the pest or weed control at 25 ppm [2] was < 0%.

`COc1ccnc(C(=O)NCC(=O)O[C@@H](C)[C@@H](C)c2ccc(F)cc2)c1OC(=O)C(C)C` [Example 199] was tested, and the pest or weed control at 25 ppm [1] was < 0% and the pest or weed control at 25 ppm [2] was < 0%.

In the case of `COc1ccnc(C(=O)NCC(=O)O[C@@H](C)[C@@H](C)c2ccc(F)cc2C)c1OC(=O)C(C)C` [Example 221], the “PHAKPA 1DP” value (1 day protectant) is reported as “D (≤0)” and the “PHAKPA 3DC” value (3 day curative) is reported as “D (≤0)”.

In the case of `COc1ccc([C@@H](C)[C@@H](C)OC(=O)[C@H](C)NC(=O)c2nccc(OC)c2OC(C)=O)c(C)c1` [Example 220], the “PHAKPA 1DP” value (1 day protectant) is reported as “B (≤80)” and the “PHAKPA 3DC” value (3 day curative) is reported as “B (≤80)”.

`COc1ccnc(C(=O)N[C@@H](C)C(=O)O[C@@H](C)[C@@H](C)c2ccccc2C)c1OC(=O)C1CC1` [Example 281] was tested, and the pest or weed control at 25 ppm [1] was > 80% and the pest or weed control at 25 ppm [2] was > 80%.

With `COc1ccnc(C(=O)N[C@H](C(=O)O[C@@H](C)[C@H](C)c2ccccc2C)C(C)C)c1OC(=O)C(C)C` [Example 211] the pest or weed control at 25 ppm [1] was < 80% and the pest or weed control at 25 ppm [2] was < 0%.

With `COc1ccnc(C(=O)N[C@H](C(=O)O[C@H](C)[C@H](C)c2ccc(F)cc2C)C(C)C)c1OC(C)=O` [Example 189] the pest or weed control at 25 ppm [1] was > 80% and the pest or weed control at 25 ppm [2] was < 80%.

For `COc1ccnc2c(=O)n([C@@H](C)C(=O)O[C@@H](C)[C@@H](C)c3ccccc3C)c(=O)oc12` [Example 285], the pest or weed control at 25 ppm [1] was > 80% and the pest or weed control at 25 ppm [2] was > 80%.

In the case of `COc1ccnc(C(=O)N[C@H](C(=O)O[C@@H](C)[C@H](C)c2ccccc2C)C(C)C)c1OC(C)=O` [Example 186], the pest or weed control at 25 ppm [1] is reported as < 80% and the pest or weed control at 25 ppm [2] is reported as < 80%.

For `CCCCC(=O)Oc1c(OC)ccnc1C(=O)N[C@@H](C)C(=O)O[C@@H](C)[C@@H](C)c1ccccc1C` [Example 280], the pest or weed control at 25 ppm [1] was > 80% and the pest or weed control at 25 ppm [2] was > 80%.

With `COc1ccnc(C(=O)N[C@@H](C)C(=O)O[C@H](C)[C@@H](C)c2ccc(F)cc2C)c1OC(C)=O` [Example 181] the pest or weed control at 25 ppm [1] was < 80% and the pest or weed control at 25 ppm [2] was < 0%.

`COc1ccnc(C(=O)N[C@H](C)C(=O)O[C@H](C)[C@H](C)c2ccc(F)cc2C)c1OC(C)=O` [Example 195] was tested, and the pest or weed control at 25 ppm [1] was < 80% and the pest or weed control at 25 ppm [2] was < 0%.

`CCC(=O)Oc1c(OC)ccnc1C(=O)N[C@@H](C)C(=O)O[C@@H](C)[C@@H](C)c1ccccc1C` [Example 278] was tested, and the pest or weed control at 25 ppm [1] was > 80% and the pest or weed control at 25 ppm [2] was > 80%.

In the case of `COc1ccnc(C(=O)N[C@H](C(=O)O[C@@H](C)[C@H](C)c2ccc(F)cc2C)C(C)C)c1OC(=O)C(C)C` [Example 210], the pest or weed control at 25 ppm [1] is reported as < 0% and the pest or weed control at 25 ppm [2] is reported as < 0%.

With `COc1ccnc(C(=O)N[C@@H](C)C(=O)O[C@@H](C)[C@@H](C)c2ccccc2C)c1OC(=O)c1ccccc1` [Example 282] the pest or weed control at 25 ppm [1] was > 80% and the pest or weed control at 25 ppm [2] was > 80%.

`COc1ccc([C@H](C)[C@H](C)OC(=O)[C@H](C)NC(=O)c2nccc(OC)c2OC(=O)C(C)C)c(C)c1` [Example 204] was tested, and the “PHAKPA 1DP” value (1 day protectant) was “A (>80)” and the “PHAKPA 3DC” value (3 day curative) was “A (>80)”.

For `COc1ccnc(C(=O)NCC(=O)O[C@@H](C)[C@H](C)c2ccc(F)cc2C)c1OC(=O)C(C)C` [Example 197], the pest or weed control at 25 ppm [1] was < 0% and the pest or weed control at 25 ppm [2] was < 0%.

`COc1ccnc(C(=O)N[C@H](C(=O)O[C@H](C)[C@@H](C)c2ccc(F)cc2C)C(C)C)c1OC(C)=O` [Example 190] was tested, and the pest or weed control at 25 ppm [1] was < 0% and the pest or weed control at 25 ppm [2] was < 0%.

In the case of `COc1ccnc(C(=O)N[C@H](C(=O)O[C@@H](C)[C@@H](C)c2ccc(F)cc2C)C(C)C)c1OC(C)=O` [Example 184], the pest or weed control at 25 ppm [1] is reported as > 80% and the pest or weed control at 25 ppm [2] is reported as > 80%.

With `COc1ccnc(C(=O)N[C@@H](C)C(=O)O[C@H](C)[C@H](C)c2ccc(F)cc2)c1OC(=O)C(C)C` [Example 226] the pest or weed control at 25 ppm [1] was < 0% and the pest or weed control at 25 ppm [2] was < 80%.

For `COc1ccnc(C(=O)N[C@H](C(=O)O[C@@H](C)[C@@H](C)c2ccc(F)cc2C)C(C)C)c1OC(=O)C(C)C` [Example 206], the “PHAKPA 1DP” value (1 day protectant) was “B (≤80)” and the “PHAKPA 3DC” value (3 day curative) was “D (≤0)”.

In the case of `COc1ccnc(C(=O)N[C@@H](C)C(=O)O[C@@H](C)[C@@H](C)c2ccc(F)cc2)c1OC(=O)C(C)C` [Example 229], the “PHAKPA 1DP” value (1 day protectant) is reported as “D (≤0)” and the “PHAKPA 3DC” value (3 day curative) is reported as “D (≤0)”.
